pIC50: −log10 of the molar value.
Tests used:
[1] = target: T1, RSV fusion (pCDNA3.1_A2_F in HEK 293T cells) (Human respiratory syncytial virus A, UniProt P03420); assay: RSV fusion assay; assay type: cell-based
T1 construct: expressed in transfected cells; host or cells: HEK 293T (ECACC 12022001)
Method: HEK 293T ((ECACC 12022001) cells were cultured in T75 culture flasks in Dulbecco's medium (DMEM) containing 10% Foetal Bovine serum (FBS), 50 units per mL Penicillin and 50 μg/mL Streptomycin and warmed to 37° C. prior to use. The cells were passaged by first washing briefly with 5 mL Phosphate buffered saline (PBS), followed by addition of 2 mL of Trypsin Ethylenediaminetetraacetic acid (EDTA) to detach the cells. Once cells had detached from the flask, 8 mL media was then added to and the cells dispersed via pipetting against the bottom of the flask.
The cells were counted and diluted to 3×10^5 cells/ml in fresh media. Two T75 flasks were each seeded with 15.6 mL diluted cells, cells were also subcultured at a ratio of between 1:2 and 1:10, to continue the stock. The flasks were then incubated for 24 h at 37° C. and 5% CO2.
The plasmid DNA (for pFR-Luc and pcDNA3. 1_Gal4/NFKB) to be transfected into the HEK 293T cells was first prepared in serum free media (Opti-MEM, Invitrogen), containing the transfection reagent FuGENE® 6 (Promega). Serum free media was placed in a 1.5 mL eppendorf tube then the FuGENE 6 was added into the media. The tube was vortexed for 1 s before being incubated at RT for 5 min. 7.79 ng of both pFR_luc and pCDNA3.1_A2_F plasmid DNA were added to tube 1 and 7.79 ng of pCDNA3.1_GAL4-NF-κB plasmid to tube 2. The tubes were vortexed for 1 second and then incubated at room temperature for 15 min. Each transfection mixture was then added into the media of one of the T75 flasks of 293T cells. Cells were cultured for 24h at 37° C., 5% CO2 in a humidified incubator.
Compounds were diluted (in a polypropylene round-bottomed 96 well plate) 1:3 in a twelve point dilution curve to give top [final] of either 25 μM, 3 μM, 1 μM or 500 nM. A control compound was included in every assay at a top concentration of 3 μM. Transfected cells were counted and diluted to 4×10^5 cells/mL in fresh media. 50 μL of transfection population 1 were added to all wells of the 96 well flat bottom white opaque assay plates. 100 μL diluted compound (2 rows per compound), control compound (one row) and controls (DMSO (0% inhibition, four wells), 3 μM positive control (100% inhibition, four wells) and media (transfection population 1 only, four wells) were added to the appropriate wells. 50 μL of the diluted (4×10^5 cells/mL) population 2 cells when then added to all wells, except the four wells of transfection population 1 only where an extra 50 μL of this cells population was added.
The plates were then incubated for 24 h at 37° C. and 5% CO2. After this time, 100 μL was removed from all wells and 60 μL of ONE-Glo™ (Promega) reagent, pre-equilibrated to room temperature, was added. Plates were then incubated for 3 min at room temperature before luminescence was read, using the ONE-Glo protocol, on the GloMax Explorer System (Promega) multimode reader. Analysis was carried out in Dotmatics software. All raw data were background subtracted (subtraction of mean 3 μM positive control value), before IC50 calculation.

RSV A2 VR-1540 = assay: RSV plaque reduction assay; assay type: cell-based; settings: human respiratory syncytial virus; Strain A2; n = 1; HEp-2 cells
Method: HEp-2 cells (ATCC, CCL23) were passaged in flasks and seeded in 96-well plates in DMEM containing antibiotics and supplemented with 10% FBS. During inoculation and subsequent incubation, cells were cultured in DMEM containing 3% FBS. 100 plaque forming unit (PFU)/well of RSV (RSV A2 VR-1540) was mixed with ten serial dilutions of compound. Subsequently, 100 μL of the virus/compound mixtures was added to confluent HEp-2 cell monolayers. The cells and virus/compound mixtures were incubated at 35° C. in a humidified 5% CO2 incubator for 1 day.
Cells were washed twice with PBS before adding 50% v/v EtOH/MeOH, and then stored at −20° C. On the day of the staining, fixative was first removed from the plates. Plates were washed 3× with PBS. A pre-titrated amount of the primary antibody was added in 60 μL PBS/2% milk powder, and plates incubated for 1 h at […]. The plates were washed 3× with PBS/0.05% Tween20 before addition of goat anti-mouse horse radish peroxidase in 60 μL PBS/2% milk powder, and incubated for 1 h at rt. Following three wash steps with PBS/0.05% Tween20, 60 μL ready-to-use TrueBlue was added and plates were incubated at rt for 10-15 min before adding MilliQ water. Plates were washed once with water, incubated for 30-60 min and after removal of water, air-dried in the dark.
Plates were scanned and analyzed using the Immunospot S6 UV analyzer, which is equipped with BioSpot analysis software for counting immunostained plaques (virospots). Plaque counts were used to calculate % infection relative to the mean of the spot count (SC) in the virus control wells for RSV. IC50/IC90 values were calculated as 50% or 90% reduction in signal, respectively, by interpolation of inhibition curves fitted with a 4-parameter nonlinear regression with a variable slope in GraphPad 5.0 (Prism).

MDR1 = assay: in vitro; assay type: in vitro ADME; settings: dog, MDCK-MDR1
Method: MDR1-MDCK cells obtained from the NIH (Rockville, Md., USA) are used between passage numbers 6-30. Cells are seeded onto Millipore Multiscreen Transwell plates at 3.4×10^5 cells/cm^2. The cells are cultured in DMEM and media is changed on day 3. On day 4 the permeability study is performed. Cell culture and assay incubations are carried out at 37° C. in an atmosphere of 5% CO2 with a relative humidity of 95%. On the day of the assay, the monolayers are prepared by rinsing both basolateral and apical surfaces twice with Hanks Balanced Salt Solution (HBSS) at the desired pH warmed to 37° C. Cells are then incubated with HBSS at the desired pH in both apical and basolateral compartments for 40 min to stabilise physiological parameters.
The dosing solutions are prepared by diluting test compound with assay buffer to give a final test compound concentration of 10 μM (final DMSO concentration of 1% v/v). The fluorescent integrity marker lucifer yellow is also included in the dosing solution. Analytical standards are prepared from test compound DMSO dilutions and transferred to buffer, maintaining a 1% v/v DMSO concentration.
For assessment of A-B permeability, HBSS is removed from the apical compartment and replaced with test compound dosing solution. The apical compartment insert is then placed into a companion plate containing fresh buffer (containing 1% v/v DMSO). For assessment of B-A permeability, FIBSS is removed from the companion plate and replaced with test compound dosing solution. Fresh buffer (containing 1% v/v DMSO) is added to the apical compartment insert, which is then placed into the companion plate. At 60 min the apical compartment inserts and the companion plates are separated and apical and basolateral samples diluted for analysis. Test compound permeability is assessed in duplicate. Compounds of known permeability characteristics are run as controls on each assay plate.
Test and control compounds are quantified by LC-MSMIS cassette analysis using an 8-point calibration with appropriate dilution of the samples. The starting concentration (C0) is determined from the dosing solution and the experimental recovery calculated from C0 and both apical and basolateral compartment concentrations. The integrity of the monolayer throughout the experiment is checked by monitoring lucifer yellow permeation using fluorimetric analysis. Lucifer yellow permeation is high if monolayers have been damaged.

T1 sequence (P03420 26-109): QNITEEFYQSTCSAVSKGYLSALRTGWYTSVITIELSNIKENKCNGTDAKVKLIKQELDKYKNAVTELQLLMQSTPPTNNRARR
T1 sequence (P03420 137-574): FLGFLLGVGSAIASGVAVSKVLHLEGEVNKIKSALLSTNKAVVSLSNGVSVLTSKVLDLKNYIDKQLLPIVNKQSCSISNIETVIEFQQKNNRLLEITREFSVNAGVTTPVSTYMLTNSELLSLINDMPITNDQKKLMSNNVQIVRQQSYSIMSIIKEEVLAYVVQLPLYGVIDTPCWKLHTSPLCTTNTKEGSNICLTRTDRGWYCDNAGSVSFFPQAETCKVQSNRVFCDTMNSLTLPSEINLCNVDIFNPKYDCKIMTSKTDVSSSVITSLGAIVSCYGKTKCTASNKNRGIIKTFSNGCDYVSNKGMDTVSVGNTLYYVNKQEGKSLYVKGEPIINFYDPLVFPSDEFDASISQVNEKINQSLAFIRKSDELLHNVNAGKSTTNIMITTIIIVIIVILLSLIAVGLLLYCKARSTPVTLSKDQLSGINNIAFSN

| Structure (SMILES) | pIC50 [1] | pIC50 (RSV A2 VR-1540) | IC90 (RSV A2 VR-1540) [nM] | Papp A→B at 60 min, 10 μM (MDR1) [×10⁻⁶ cm/s] | Papp B→A at 60 min, 10 μM (MDR1) [×10⁻⁶ cm/s] |
| --- | --- | --- | --- | --- | --- |
| CS(=O)(=O)N1CCN(CCCn2c(CN3C(=O)C4(CC4)c4ccc(F)cc43)nc3cc(Cl)ccc32)CC1 [Compound 1, 1′-({5-Chloro-1-[3-(4-methanesulfonylpiperazin-1-yl)propyl]-1H-1,3-benzodiazol-2-yl}methyl)-6′-fluoro-1,2′-dihydrospiro[cyclopropane-1,3′-indole]-2′-one] | 7.72 | 8.23 | 50 |  |  |
| CS(=O)(=O)N1CCN(CCn2c(CN3C(=O)C4(CC4)c4ccc(F)cc43)nc3cc(Cl)ccc32)CC1 [Compound 9, 1′-({5-chloro-1-[2-(4-methanesulfonylpiperazin-1-yl)ethyl]-1H-1,3-benzodiazol-2-yl}methyl)-6′-fluoro-1′,2′-dihydrospiro[cyclopropan-1,3′-indole]-2′-one] | 7.82 | 8.38 | 28 |  |  |
| CS(=O)(=O)CCNCCCn1c(CN2C(=O)C3(CC3)c3ccc(F)cc32)nc2cc(Cl)ccc21 [Compound 10, 1′-[(5-Chloro-1-{3-[(2-methanesulfonylethyl)amino]propyl}-1H-1,3-benzodiazol-2-yl)methyl]-6′-fluoro-1′,2′-dihydrospiro[cyclopropane-1,3′-indole]-2′-one] | 7.92 | 8.60 | 31 |  |  |
| CCS(=O)(=O)CCNCCCn1c(CN2C(=O)C3(CC3)c3ccc(F)cc32)nc2cc(Cl)ccc21 [Compound 11, 1′-{[5-Chloro-1-(3-{[2-(ethanesulfonyl)ethyl]amino}propyl)-1H-1,3-benzodiazol-2-yl]methyl}-6′-fluoro-1′,2′-dihydrospiro[cyclopropane-1,3′-indole]-2′-one] | 7.62 | 8.30 | 41 |  |  |
| CC(C)[C@H](NCCCn1c(CN2C(=O)C3(CC3)c3ccc(F)cc32)nc2cc(Cl)ccc21)C(N)=O [Compound 12, (2S)-2-({3-[5-chloro-2-({6′-fluoro-2′-oxo-1′,2′-dihydrospiro[cyclopropane-1,3′-indole]-1′-yl}methyl)-1H-1,3-benzodiazol-1-yl]propyl}amino)-3-methylbutanamide] | 7.15 | 7.54 | 200 |  |  |
| CS(=O)(=O)C1CN(CCCn2c(CN3C(=O)C4(CC4)c4ccc(F)cc43)nc3cc(Cl)ccc32)C1 [Compound 13, 1′-({5-Chloro-1-[3-(3-methanesulfonylazetidin-1-yl)propyl]-1H-1,3-benzodiazol-2-yl}methyl)-6′-fluoro-1′,2′-dihydrospiro[cyclopropane-1,3′-indole]-2′-one] | 8.00 | 8.35 | 41 |  |  |
| CS(=O)(=O)C1CCN(CCCn2c(CN3C(=O)C4(CC4)c4ccc(F)cc43)nc3cc(Cl)ccc32)C1 (stereo not shown) [Compound 14, 1′-({5-Chloro-1-[3-(3-methanesulfonylpyrrolidin-1-yl)propyl]-1H-1,3-benzodiazol-2-yl}methyl)-6′-fluoro-1′,2′-dihydrospiro[cyclopropane-1,3′-indole]-2′-one] | 7.74 | 8.46 | 34 | 4.8 | 68 |
| O=C1N(Cc2nc3cc(Cl)ccc3n2CCCN2CCOCC2)c2cc(F)ccc2C12CC2 [Compound 18, 1′-({5-Chloro-1-[3-(morpholin-4-yl)propyl]-1H-1,3-benzodiazol-2-yl}methyl)-6′-fluoro-1′,2′-dihydrospiro[cyclopropane-1,3′-indole]-2′-one] | 7.15 | 8.12 | 60 |  |  |
| CS(=O)(=O)C1CCN(CCCn2c(CN3C(=O)C4(CC4)c4ccc(F)cc43)nc3cc(Cl)ccc32)CC1 [Compound 20, 1′-({5-Chloro-1-[3-(4-methanesulfonylpiperidin-1-yl)propyl]-1H-1,3-benzodiazol-2-yl}methyl)-6′-fluoro-1′,2′-dihydrospiro[cyclopropane-1,3′-indole]-2′-one] | 7.92 | 8.23 | 7.5 | 1.6 | 61.3 |
| O=C1N(Cc2nc3cc(Cl)ccc3n2CCCN2CCS(=O)(=O)CC2)c2cc(F)ccc2C12CC2 [Compound 28, 4-{3-[5-Chloro-2-({6′-fluoro-2′-oxo-1′,2′-dihydrospiro[cyclopropane-1,3′-indole]-1′-yl}methyl)-1H-1,3-benzodiazol-1-yl]propyl}-1λ6-thiomorpholine-1,1-dione] | 6.94 | 8.02 | 48 |  |  |

From patent US11078189B2, “Pharmaceutical compounds” (REVIRAL LIMITED, priority 2017, dated 2021)
